Numbered stars: 1 amine (or outer) side, 2 acyl side, 3 side chain; on linkers, the order of the positions; unused ones are H or OH. Bridge positions count the residues as written; N and C are the ends. Side chains are listed from the residue outwards. Peptide text beside a SMILES is read from it. * marks the point of attachment. C20 diacid = O=C(O)CCCCCCCCCCCCCCCCCCC(=O)*; γGlu = O=C(O)[C@H](CCC(=O)[*:2])N[*:1]
Assays:
[1] = ASSAY (IX) pK, determination of T½ in mini-pig; format: in vivo; conditions: male, Göttingen, minipig, plasma, iv, 2 nmol/kg
[2] = ASSAY (X) pK, determination of T½ in rat; format: in vivo; conditions: male, Sprague Dawley, plasma, iv, 20 nmol/kg
Male Sprague-Dawley rats = test: ASSAY (XI) single subcutaneous administration, food intake monitored for 48 hours in rats; format: in vivo, rat; conditions: for Food intake red (%) 0-24 h / Food intake red (%) 24-48 h: single s.c., compared to vehicle
How it was run: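 Male Sprague-Dawley rats from Taconic Europe, weighing about 250 g on the test day, were singly housed in an online food intake monitoring system (Ellegaard MBRose, Denmark). Before the study they were acclimatized to a reversed light cycle, with lights on from 10 PM to 10 AM. Each rat then received one subcutaneous dose of the analogue, and data are reported as mean±SEM.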

Male Wistar rats = test: ASSAY (XII) effect from single subcutaneous administration on plasma calcium in rats; format: in vivo, rat; conditions: for Plasma calcium red (%) 0-12 h (maximal): single s.c., compared to vehicle; for suppression of plasma calcium level relative to vehicle: monitored over 24 hours
How it was run: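 Male Wistar rats (~250 g), groups of five, received a single subcutaneous dose at time 0. Blood drawn at −15 min, 1, 2, 4, 7, 12 and 24 h; total calcium measured in heparin plasma, reported as mean±SEM.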

half-life [1]: 95 h
half-life [2]: 17 h
Plasma calcium red (%) 0-12 h (maximal) (Male Wistar rats; 3 nmol/kg): 7%
Plasma calcium red (%) 0-12 h (maximal) (Male Wistar rats; 30 nmol/kg): 27%
SMILES: CC[C@H](C)[C@H](NC(=O)[C@H](C)NC(=O)CNC(=O)[C@H](Cc1ccccc1)NC(=O)[C@H](CC(N)=O)NC(=O)[C@@H]1CCCN1C(=O)[C@H](CO)NC(=O)[C@H](CO)NC(=O)[C@H](Cc1c[nH]cn1)NC(=O)[C@H](CCCNC(=N)N)NC(=O)[C@H](CC(C)C)NC(=O)[C@H](Cc1ccccc1)NC(=O)[C@H](CCC(=O)O)NC(=O)[C@H](C)NC(=O)[C@H](CC(C)C)NC(=O)[C@H](CCCNC(=N)N)NC(=O)[C@H](CCC(N)=O)NC(=O)[C@@H](NC(=O)[C@H](C)NC(=O)[C@@H]1CSSC[C@H](NC(=O)[C@@H](N)CCCCNC(=O)CC[C@H](NC(=O)CCCCCCCCCCCCCCCCCCC(=O)O)C(=O)O)C(=O)N[C@@H](CC(N)=O)C(=O)N[C@@H]([C@@H](C)O)C(=O)N[C@@H](C)C(=O)N[C@@H]([C@@H](C)O)C(=O)N1)[C@@H](C)O)C(=O)N1CCC[C@H]1C(=O)N[C@@H](CO)C(=O)N[C@@H](CO)C(=O)N[C@H](C(=O)N[C@@H](CC(N)=O)C(=O)N[C@H](C(=O)NCC(=O)N1CCC[C@H]1C(=O)N[C@@H](CCC(=O)O)C(=O)N[C@H](C(=O)N[C@@H](Cc1ccc(O)cc1)C(N)=O)[C@@H](C)O)C(C)C)[C@@H](C)O [Example 109] (H-K([γGlu-C20 diacid])CNTATCATQRLAEFLRHSSPNFGAIPSSTNVGPETY-NH2; disulfide 2-7 (inferred); N-terminus assumed)
Food intake red (%) 0-24 h (Male Sprague-Dawley rats; 3 nmol/kg): 57%
Food intake red (%) 24-48 h (Male Sprague-Dawley rats; 3 nmol/kg): 50%
Food intake red (%) 0-24 h (Male Sprague-Dawley rats; 30 nmol/kg): 89%
Food intake red (%) 24-48 h (Male Sprague-Dawley rats; 30 nmol/kg): 91%
food intake monitored over 48 hours (Male Sprague-Dawley rats; single subcutaneous administration, 30 nmol/kg, versus vehicle): reduces food intake
suppression of plasma calcium level relative to vehicle (Male Wistar rats; single subcutaneous 3 nmol/kg): does not trigger a notable suppression of the calcium level
suppression of plasma calcium level relative to vehicle (Male Wistar rats; single subcutaneous 30 nmol/kg): induces a minor suppression of the calcium level
suppression of plasma calcium level relative to vehicle (Male Wistar rats; single subcutaneous 100 nmol/kg): induces a more pronounced suppression of the calcium level
suppression of plasma calcium level relative to vehicle (Male Wistar rats; single subcutaneous 300 nmol/kg): induces a more pronounced suppression of the calcium level

Reference: patent US9023789B2, “Amylin analogs and pharmaceutical compositions thereof” (Novo Nordisk A/S, priority 2012, dated 2015)
